The text below walks through data of PMC3989234, “Introduction of Aromatic Ring-Containing Substituents in Cyclic Nucleotides Is Associated with Inhibition of Toxin Uptake by the Hepatocyte Transporters OATP 1B1 and 1B3” (PLoS ONE, 2014).

The target in series [1] is T1, OATP1B1 (Homo sapiens, UniProt Q9Y6L6).
T1 sequence (Q9Y6L6 1-691): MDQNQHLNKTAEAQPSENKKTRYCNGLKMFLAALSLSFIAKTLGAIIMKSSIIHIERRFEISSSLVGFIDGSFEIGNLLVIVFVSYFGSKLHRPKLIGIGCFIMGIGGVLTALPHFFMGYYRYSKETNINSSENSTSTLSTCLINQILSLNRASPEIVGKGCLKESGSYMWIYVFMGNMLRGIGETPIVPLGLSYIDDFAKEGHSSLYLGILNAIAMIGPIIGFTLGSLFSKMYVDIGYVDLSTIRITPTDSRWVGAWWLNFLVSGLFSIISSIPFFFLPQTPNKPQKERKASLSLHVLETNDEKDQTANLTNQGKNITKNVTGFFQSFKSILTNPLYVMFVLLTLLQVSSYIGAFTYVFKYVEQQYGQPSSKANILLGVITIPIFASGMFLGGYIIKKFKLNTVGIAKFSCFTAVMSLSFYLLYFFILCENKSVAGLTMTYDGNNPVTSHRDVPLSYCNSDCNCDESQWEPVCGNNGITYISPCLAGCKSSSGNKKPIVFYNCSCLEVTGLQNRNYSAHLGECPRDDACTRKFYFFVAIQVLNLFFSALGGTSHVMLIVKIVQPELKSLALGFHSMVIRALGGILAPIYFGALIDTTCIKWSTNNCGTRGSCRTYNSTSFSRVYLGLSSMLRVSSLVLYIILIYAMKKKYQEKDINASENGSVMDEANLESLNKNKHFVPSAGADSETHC

Series [2] addresses OATP1B3 (Homo sapiens, UniProt Q9NPD5).

Some results are limits rather than exact numbers.

Chain of OATP1B3 (Q9NPD5 whole entry): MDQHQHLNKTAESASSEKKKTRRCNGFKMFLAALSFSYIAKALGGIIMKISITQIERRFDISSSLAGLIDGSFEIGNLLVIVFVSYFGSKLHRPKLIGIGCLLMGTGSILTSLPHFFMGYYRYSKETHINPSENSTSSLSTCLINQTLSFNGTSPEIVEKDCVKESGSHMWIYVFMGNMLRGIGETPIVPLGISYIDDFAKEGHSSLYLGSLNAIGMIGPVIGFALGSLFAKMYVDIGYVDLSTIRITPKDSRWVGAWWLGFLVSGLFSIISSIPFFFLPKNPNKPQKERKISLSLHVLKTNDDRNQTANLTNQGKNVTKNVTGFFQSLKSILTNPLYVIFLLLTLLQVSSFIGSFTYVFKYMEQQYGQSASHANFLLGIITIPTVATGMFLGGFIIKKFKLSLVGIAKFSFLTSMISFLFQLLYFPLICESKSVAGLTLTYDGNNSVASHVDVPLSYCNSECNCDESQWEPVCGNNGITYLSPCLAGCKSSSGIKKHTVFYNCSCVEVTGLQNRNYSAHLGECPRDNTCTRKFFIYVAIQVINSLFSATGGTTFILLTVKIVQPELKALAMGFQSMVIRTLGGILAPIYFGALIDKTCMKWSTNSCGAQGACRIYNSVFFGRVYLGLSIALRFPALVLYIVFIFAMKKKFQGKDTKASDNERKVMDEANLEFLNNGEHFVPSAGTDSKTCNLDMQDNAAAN

The term IC50 denotes the point on the concentration scale where inhibition reaches its midpoint. In the case of `COC1C2OP(O)(=S)OCC2OC1n1c(Sc2ccc(Cl)cc2)nc2c(N)ncnc21` (single isomer, unassigned) [Rp-8-pCPT-2′-O-Me-cAMPS, 8-(4-Chlorophenylthio)-2′-O-methyladenosine-3′, 5′-cyclic monophosphorothioate, Rp-isomer], the IC50 in series [1] and in series [2] was greater than 300 µM in each case.
In the case of `CO[C@H]1C2OP(=O)(O)OC[C@H]2O[C@H]1n1c(Br)nc2c(N)ncnc21` (stereo partly shown) [8-Br-2′-O-Me-cAMP, 8-Bromo-2′-O-methyladenosine-3′, 5′-cyclic monophosphate], the IC50 in series [1] and in series [2] was greater than 300 µM each time. Moreover, the “Effect on Nod-induced apoptosis / Nod transport, OATP1B3-transfected HEK293T cells” value in series [2] is “some inhibition”.
The term Ki denotes the dissociation constant of the complex between target and ligand, obtained from inhibition or displacement. A higher Ki goes with lower affinity. With `O=P1(O)OCC2OC(n3c(Sc4ccc(Cl)cc4)nc4c(Nc5ccccc5)ncnc43)C(O)C2O1` (stereo not shown) [8-pCPT-6-Phe-cAMP, 8-(4-Chlorophenylthio)-N^6-phenyladenosine-3′, 5′-cyclic monophosphate], the Ki turned out to be 2.07 µM in series [1] and 0.804 µM in series [2].
In series [1], `O=P1(O)OC[C@H]2O[C@@H](n3c(Sc4ccc(Cl)cc4)nc4c(Nc5ccccc5)ncnc43)C[C@@H]2O1` [8-pCPT-6-Phe-dcAMP, 8-(4-Chlorophenylthio)-N^6-phenyladenosine-2′-deoxyadenosine 3′, 5′-cyclic monophosphate] displayed an IC50 of 8.2 µM and a Ki of 2.73 µM. Also, in series [2], the IC50 is 8 µM and affinity was put at a Ki of 2.14 µM.
On to `Nc1ncnc2c1nc(Br)n2[C@@H]1O[C@@H]2COP(=O)(O)O[C@H]2[C@H]1O` [Analog 8-Br-cAMP, 8-Bromoadenosine-3′, 5′-cyclic monophosphate], for which the IC50 in series [1] and in series [2] was greater than 300 µM throughout.
Regarding `Nc1nc2c(nc(Br)n2[C@@H]2O[C@@H]3COP(=O)(O)O[C@H]3[C@H]2O)c(=O)[nH]1` [Analog 8-Br-cGMP, 8-Bromoguanosine-3′, 5′-cyclic monophosphate], in series [1], the “Effect on Nod-induced apoptosis / Nod transport, OATP1B1-transfected HEK293T cells” value is “inactive” and the IC50 is greater than 300 µM. In series [2], the “Effect on Nod-induced apoptosis / Nod transport, OATP1B3-transfected HEK293T cells” value is “inactive” and the IC50 is greater than 300 µM.
For `Nc1nc2c(nc(Sc3ccc(Cl)cc3)n2[C@@H]2O[C@@H]3COP(=O)(O)O[C@H]3[C@H]2O)c(=O)[nH]1` [Analog 8-pCPT-cGMP, 8-(4-Chlorophenylthio)guanosine-3′, 5′-cyclic monophosphate], the IC50 stood at 259 µM in series [1] and 88.8 µM in series [2]. The Ki was 86.3 µM in series [1] and 29.6 µM in series [2].
Regarding `CC(C)Cn1c(=O)n(C)c(=O)c2[nH]cnc21` [IBMX], the “Effect on Nod-induced apoptosis, OATP1B1-transfected cells” value in series [1] (250 µM) was “did not affect”. Further, the “Effect on Nod-induced apoptosis, OATP1B3-transfected cells” value in series [2] (250 µM) is “did not affect”.
One may read the Km as the concentration of substrate that gives half-maximal velocity. Regarding `C/C=C1/C(=O)N[C@@H](C(=O)O)[C@H](C)C(=O)N[C@@H](CCCNC(=N)N)C(=O)N[C@@H](/C=C/C(C)=C/[C@H](C)[C@H](Cc2ccccc2)OC)[C@H](C)C(=O)N[C@@H](C(=O)O)CCC(=O)N1C` [Nod, nodularin], the Km in series [1] (read-out: Km for Nod, OATP1B1) was 0.05 µM; in series [2] (read-out: Km for Nod, OATP1B3) it was 0.22 µM.
`Nc1nc2c(ncn2[C@@H]2O[C@@H]3COP(=O)(O)O[C@H]3[C@H]2O)c(=O)[nH]1` [cGMP]: in series [1], the “Effect on Nod-induced apoptosis / Nod transport, OATP1B1-transfected HEK293T cells” value is on record as “did not affect” and the IC50 was greater than 300 µM. Further, in series [2], the “Effect on Nod-induced apoptosis / Nod transport, OATP1B3-transfected HEK293T cells” value was “did not affect” and the IC50 is greater than 300 µM.
Take `CO[C@H]1/C=C/O[C@@]2(C)Oc3c(C)c(O)c4c(O)c(cc(O)c4c3C2=O)NC(=O)/C(C)=C\C=C\[C@H](C)[C@H](O)[C@@H](C)[C@@H](O)[C@@H](C)[C@H](OC(C)=O)[C@@H]1C` [rifamycin SV, Rifamycin SV]: the “Effect on Nod-induced apoptosis / Nod transport, OATP1B1-transfected HEK293T cells” value in series [1] is reported as “abolished”. Also, the “Effect on Nod-induced apoptosis / Nod transport, OATP1B3-transfected HEK293T cells” value in series [2] was “abolished”.
